# According to US10584120B1, “Benzimidazole compounds and use thereof for treating Alzheimer's Disease or Huntington's Disease” (National Health Research Institutes, priority 2018, dated 2020):
# Tests used:
# [1] = tested on: Aβ deposits in brain tissues of APP/PS1 mice; assay: In vivo activity in transgenic APP/PS1 mouse model; conditions: 4-month-old APP/PS1 mice, orally administered for 3.5 months
# in vivo = conditions: APP/PS1, mouse, po
bioavailability (in vivo) [%],Structure (SMILES),Aβ deposits in brain tissues [1]
,"O=C1NC(=O)N(c2ccc3[nH]cnc3c2)C1c1ccc(-c2nc(C(F)(F)F)cs2)cc1 (centres unmarked) [Compound 37, 1-(1H-benzimidazol-5-yl)-5-{4-[4-(trifluoromethyl)-1,3-thiazol-2-yl]phenyl}imidazolidine-2,4-dione]",depletion of Aβ deposits in brain tissues
25,"O=C1NCC(c2ccc(-c3csc(C(F)(F)F)c3)c(F)c2F)N1c1ccc2[nH]cnc2c1 (centres unmarked) [Compound 28, 1-(1H-benzimidazol-5-yl)-5-{2,3-difluoro-4-[5-(trifluoromethyl)thiophen-3-yl]phenyl}-imidazolidin-2-one]",
